What was measured:
[1] = system: SCID mice bearing twin HEK293-CCK2i4svR and wtHEK293 tumors; experiment: Biodistribution in SCID mice bearing twin HEK293-CCK2i4svR and wtHEK293 xenografts; format: in vivo
Procedure: Inocula containing a suspension of freshly harvested HEK293-CCK2i4svR/wtHEK293 cells (150 μL, 1.8 × 10^7/1.4 × 10^7 cells, respectively, in normal saline) were subcutaneously (sc) injected in the right and left flanks of male SCID mice (24.5 ± 2.3 g body weight, six weeks of age on arrival day, NCSR “Demokritos” Animal House Facility). Well-palpable tumors (0.42 ± 0.37/0.25 ± […], respectively) were grown at the inoculation site 3–4 weeks later, and biodistribution was conducted. On the day of biodistribution, animals were divided into groups of four and received the radioligand through the tail vein as a bolus (100 μL, containing each of: i. 78–91 kBq [^67Ga]GAS1/2/3 corresponding to 7–17 pmol GAS1/2/3; ii. 74–92 kBq [^111In]GAS1/2/3 corresponding to 20–25 pmol GAS1/2/3; iii. 730 kBq [^177Lu]Lu-GAS1/3 corresponding to 40 pmol GAS1/3, in-vehicle: saline/EtOH 9/1 v/v). Animals were euthanized at predetermined time intervals depending upon the radionuclide applied (for [^67Ga]Ga-GAS1/2/3: 1, 4 and 24 h pi; for [^111In]In-GAS1/2/3: 4 and 24 h pi–two extra groups of mice receiving gelofusine together with [^111In]In-GAS1/2 at 4 and 24 h pi were included; and for [^177Lu]Lu-GAS1/3: 4, 24, 48, 72 and 96 h pi). Mice were dissected, and blood samples, organs of interest and tumors were rapidly collected, weighted and counted in the gamma counter. Biodistribution data was calculated as the percentage of the administered dose per gram tissue (%IA/g) with the aid of suitable standards of the administered dose and the Microsoft Excel program. Results are presented as mean % IA/g values ± SD, n = 4 per time point, as determined by the PRISM^TM 6.0 GraphPad software (San Diego, CA, USA).

[2] = Radioligand stability in mice (radio-HPLC of blood and urine); format: in vivo; settings: mean ± SD
Procedure: The formation of radiometabolites which can be detected in the blood was tested in blood samples collected 5 min post-injection (pi) of each of the radioligands [^67Ga]Ga/[^111In]In/[^177Lu]Lu-GAS1/3 and [^67Ga]Ga/[^111In]In-GAS2. For this study, in-house male Swiss albino mice (body weight: 30 ± 5 g, provided by the NCSR “Demokritos” Animal House) were used in groups of three. The animals received, through the tail vein, a 100-μL bolus containing each radioligand tested (2.5–3 nmol of the total conjugate in vehicle: saline/EtOH 9/1 v/v, corresponding to: up to 11 MBq for In-111, up to 13 MBq for Ga-67 and up to 74 MBq for Lu-177). Mice were euthanized, and blood was collected directly from the heart using a prechilled penicillin syringe and transferred in a prechilled EDTA-containing Eppendorf Protein LoBind® tube on ice (40 µL, 50 mM Na2EDTA solution). After centrifugation (10 min, 2000× g/4 °C, in a Hettich, Universal 320R, centrifuge), the blood plasma was collected, mixed with chilled MeCN in a 1/1 v/v ratio and centrifuged again (10 min, 15,000× g/4 °C). Supernatants were collected and concentrated to a small volume (≈50–100 μL) under a gentle N2-flux at 40 °C. They were then diluted with physiological saline (≈400 μL) and filtered through a Millex GV filter (0.22 μm, 13 mm Ø, Millipore, Milford, CT, USA). Aliquots of the filtrate were analyzed by radio-RP-HPLC using a Waters Symmetry Shield RP18 cartridge column (5 μm, 3.9 mm × 20 mm) eluted at a flow rate of 1.0 mL/min with the following gradient: 100% A/0% B to 55% A/45% B in 45 min; A = 0.1% aqueous TFA (v/v) and B = MeCN (system 2). The elution time (tR) of each parent radioligand was determined by coinjection of blood samples with an aliquot of the labeling solution on the HPLC column. Results were calculated as the average percentage of intact radioligand ± SD derived from three independent experiments.
Following the same injection protocol, radioligands were administered in additional groups of mice, but this time animals were euthanized 30 min pi. The urine was immediately collected from the bladder using a prechilled syringe and transferred as before in a prechilled EDTA-containing Eppendorf Protein LoBind® centrifuge tube on ice (40 µL, 50 mM Na2EDTA solution) and 0.1 mL of physiological saline. Urine proteins were precipitated by adding chilled MeCN in a 1/1 v/v ratio followed by a 10 min centrifugation step (15,000× g/4 °C). The supernatant was then collected and treated following the blood sample workup procedure. Aliquots of the Millex-GV filtrate (containing >90% of total urine activity) were analyzed by radio-HPLC, adopting the aforementioned conditions. Results were calculated as the average percentage of intact radioligand ± SD derived from three independent experiments.

Biodistribution, Blood ([1]; 4 h pi): 0.99 ± 0.20 %IA/g | Biodistribution, CCK2i4svR(+) Tumor ([1]; 4 h pi): 8.74 ± 1.60 %IA/g | Biodistribution, CCK2i4svR(-) Tumor ([1]; 4 h pi): 1.01 ± 0.30 %IA/g | Biodistribution, Femur ([1]; 4 h pi): 0.28 ± 0.03 %IA/g | Biodistribution, Heart ([1]; 4 h pi): 0.41 ± 0.07 %IA/g | Biodistribution, Intestines ([1]; 4 h pi): 1.65 ± 0.28 %IA/g | Biodistribution, Kidneys ([1]; 4 h pi): 3.70 ± 0.62 %IA/g | Biodistribution, Liver ([1]; 4 h pi): 2.21 ± 0.44 %IA/g | Biodistribution, Lungs ([1]; 4 h pi): 0.94 ± 0.15 %IA/g | Biodistribution, Muscle ([1]; 4 h pi): 0.12 ± 0.02 %IA/g | Biodistribution, Pancreas ([1]; 4 h pi): 0.56 ± 0.11 %IA/g | Biodistribution, Spleen ([1]; 4 h pi): 0.59 ± 0.07 %IA/g | Biodistribution, Stomach ([1]; 4 h pi): 0.37 ± 0.05 %IA/g | Biodistribution, Blood ([1]; 24 h pi): 0.06 ± 0.00 %IA/g | Biodistribution, CCK2i4svR(+) Tumor ([1]; 24 h pi): 2.09 ± 0.50 %IA/g | Biodistribution, CCK2i4svR(-) Tumor ([1]; 24 h pi): 0.29 ± 0.20 %IA/g | Biodistribution, Femur ([1]; 24 h pi): 0.11 ± 0.01 %IA/g | Biodistribution, Heart ([1]; 24 h pi): 0.12 ± 0.00 %IA/g | Biodistribution, Intestines ([1]; 24 h pi): 0.32 ± 0.07 %IA/g | Biodistribution, Kidneys ([1]; 24 h pi): 1.05 ± 0.12 %IA/g | Biodistribution, Liver ([1]; 24 h pi): 0.51 ± 0.07 %IA/g | Biodistribution, Lungs ([1]; 24 h pi): 0.34 ± 0.03 %IA/g | Biodistribution, Muscle ([1]; 24 h pi): 0.04 ± 0.00 %IA/g | Biodistribution, Pancreas ([1]; 24 h pi): 0.10 ± 0.01 %IA/g | Biodistribution, Spleen ([1]; 24 h pi): 0.32 ± 0.01 %IA/g | Biodistribution, Stomach ([1]; 24 h pi): 0.14 ± 0.03 %IA/g | Biodistribution, Blood ([1]; 48 h pi): 0.04 ± 0.01 %IA/g | Biodistribution, CCK2i4svR(+) Tumor ([1]; 48 h pi): 0.97 ± 0.20 %IA/g | Biodistribution, CCK2i4svR(-) Tumor ([1]; 48 h pi): 0.17 ± 0.02 %IA/g | Biodistribution, Femur ([1]; 48 h pi): 0.09 ± 0.01 %IA/g | Biodistribution, Heart ([1]; 48 h pi): 0.07 ± 0.01 %IA/g | Biodistribution, Intestines ([1]; 48 h pi): 0.08 ± 0.01 %IA/g | Biodistribution, Kidneys ([1]; 48 h pi): 0.38 ± 0.07 %IA/g | Biodistribution, Liver ([1]; 48 h pi): 0.32 ± 0.04 %IA/g | Biodistribution, Lungs ([1]; 48 h pi): 0.29 ± 0.04 %IA/g | Biodistribution, Muscle ([1]; 48 h pi): 0.03 ± 0.00 %IA/g | Biodistribution, Pancreas ([1]; 48 h pi): 0.05 ± 0.01 %IA/g | Biodistribution, Spleen ([1]; 48 h pi): 0.26 ± 0.06 %IA/g | Biodistribution, Stomach ([1]; 48 h pi): 0.08 ± 0.01 %IA/g | Biodistribution, Blood ([1]; 72 h pi): 0.04 ± 0.00 %IA/g | Biodistribution, CCK2i4svR(+) Tumor ([1]; 72 h pi): 0.35 ± 0.23 %IA/g | Biodistribution, CCK2i4svR(-) Tumor ([1]; 72 h pi): 0.18 ± 0.05 %IA/g | Biodistribution, Femur ([1]; 72 h pi): 0.06 ± 0.00 %IA/g | Biodistribution, Heart ([1]; 72 h pi): 0.05 ± 0.01 %IA/g | Biodistribution, Intestines ([1]; 72 h pi): 0.06 ± 0.02 %IA/g | Biodistribution, Kidneys ([1]; 72 h pi): 0.14 ± 0.04 %IA/g | Biodistribution, Liver ([1]; 72 h pi): 0.23 ± 0.02 %IA/g | Biodistribution, Lungs ([1]; 72 h pi): 0.21 ± 0.03 %IA/g | Biodistribution, Muscle ([1]; 72 h pi): 0.02 ± 0.00 %IA/g | Biodistribution, Pancreas ([1]; 72 h pi): 0.03 ± 0.00 %IA/g | Biodistribution, Spleen ([1]; 72 h pi): 0.51 ± 0.71 %IA/g | Biodistribution, Stomach ([1]; 72 h pi): 0.05 ± 0.01 %IA/g | Biodistribution, Blood ([1]; 96 h pi): 0.04 ± 0.00 %IA/g | Biodistribution, CCK2i4svR(+) Tumor ([1]; 96 h pi): 0.56 ± 0.25 %IA/g | Biodistribution, CCK2i4svR(-) Tumor ([1]; 96 h pi): 0.11 ± 0.04 %IA/g | Biodistribution, Femur ([1]; 96 h pi): 0.05 ± 0.01 %IA/g | Biodistribution, Heart ([1]; 96 h pi): 0.04 ± 0.00 %IA/g | Biodistribution, Intestines ([1]; 96 h pi): 0.08 ± 0.05 %IA/g | Biodistribution, Kidneys ([1]; 96 h pi): 0.10 ± 0.04 %IA/g | Biodistribution, Liver ([1]; 96 h pi): 0.19 ± 0.02 %IA/g | Biodistribution, Lungs ([1]; 96 h pi): 0.17 ± 0.02 %IA/g | Biodistribution, Muscle ([1]; 96 h pi): 0.02 ± 0.01 %IA/g | Biodistribution, Pancreas ([1]; 96 h pi): 0.03 ± 0.01 %IA/g | Biodistribution, Spleen ([1]; 96 h pi): 0.14 ± 0.02 %IA/g | Biodistribution, Stomach ([1]; 96 h pi): 0.05 ± 0.01 %IA/g | Intact radioligand in blood ([2]; mice blood collected 5 min pi): 81.1 ± 8.2 (3) % | Intact radioligand in urine ([2]; mice urine collected 30 min pi): 79.2 ± 10.3 (3) %
SMILES: CC(C)(C)C(=O)CN1C(=O)[C@H](NC(=O)Nc2cccc(C(=O)NCCOCCOCCOCCNC(=O)[C@H](CCC(=O)O)NC(=O)CN3CCN(CC(=O)[O-])CCN(CC(=O)[O-])CCN(CC(=O)[O-])CC3)c2)CN(C2CCCCC2)c2ccccc21.[177Lu+3] (stereo in doubt) [[^177Lu]Lu-GAS1]
Background clearance / excretion route ([1]; mouse, in vivo): rapid background clearance predominantly via the kidneys
